This passage reports IC50 results from PMC6456241 (Preventive Nutrition and Food Science, 2018).

Molecules are shown by their SMILES.

In assay [1] the target is mushroom tyrosinase (EC 1.14.18.1) (Agaricus bisporus, UniProt C7FF04). Description: Assay of tyrosinase. In kind it is biochemical.
The target of assay [2] is α-Glucosidase (EC 3.2.1.20). Description: Assay of α-glucosidase. In kind it is biochemical. The settings on record: read-out: Inhibition (IC50) α-Glucosidase; isolated compounds; pNPG substrate, pH 6.8, 37°C; mean±SD of triplicate.

Sequence of mushroom tyrosinase (EC 1.14.18.1) (C7FF04 1-392 limits assumed): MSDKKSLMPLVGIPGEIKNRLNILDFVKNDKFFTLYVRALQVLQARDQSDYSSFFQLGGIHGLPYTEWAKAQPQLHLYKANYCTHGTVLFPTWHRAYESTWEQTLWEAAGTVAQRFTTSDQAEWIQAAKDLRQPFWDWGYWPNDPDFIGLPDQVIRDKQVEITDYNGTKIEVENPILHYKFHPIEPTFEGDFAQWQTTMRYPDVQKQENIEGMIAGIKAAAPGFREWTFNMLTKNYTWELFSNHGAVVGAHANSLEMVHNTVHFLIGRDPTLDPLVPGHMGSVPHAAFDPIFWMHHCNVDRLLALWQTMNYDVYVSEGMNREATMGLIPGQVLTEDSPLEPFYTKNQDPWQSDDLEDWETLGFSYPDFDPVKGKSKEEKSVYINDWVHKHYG

As for `CC(C)=CCc1c(O)ccc(C(=O)[C@H]2[C@@H](c3c(O)cc(-c4cc5ccc(O)cc5o4)cc3O)C=C(C)C[C@@H]2c2ccc(O)cc2O)c1O` [CMC, chalcomoracin], the IC50 in assay [1] stood at 5.61 ± 0.2 µM; in assay [2], 6 ± 0.46 µM.
`CC(C)=CCc1c(O)cc(-c2cc3ccc(O)cc3o2)cc1O` [MCC, moracin C]: the IC50 in assay [1] stood at 37.9 ± 0.42 µM; in assay [2] it was 88.8 ± 1.32 µM.
In the case of `Oc1cc(O)cc(-c2cc3ccc(O)cc3o2)c1` [MCM, moracin M], the IC50 stood at 17.2 ± 0.37 µM in assay [1] and 168 ± 2.44 µM in assay [2].
Consider `CC(C)=CCc1cc2cc(-c3cc(O)cc(O)c3)oc2cc1O` [MCN, moracin N], for which the IC50 was 10.16 ± 0.03 µM in assay [1] and 59.4 ± 2 µM in assay [2].
Take `Oc1cc(O)cc(/C=C/c2ccc(O)cc2O)c1` [ORT, oxyresveratrol]: the IC50 in assay [1] worked out at 0.57 ± 0.04 µM; in assay [2], 273 ± 13.2 µM.
